Values of other authors, collected in patent US11534458B2, “Phosphorus-sparing nutritional composition” (Albion Laboratories, Inc., priority 2013, dated 2022).
Where two headings read alike, the source gives them in different places.

Assays:
healthy young women = details: for iron absorption increased by a factor of: phytase 10 mg (190 FTU), maize porridge meal
[1] = phytate-rich diet

**Q.** Which “effect on iron absorption” value (healthy young women; ascorbic acid alone, iron from NaFeEDTA) does the source give for O=C1O[C@H]([C@@H](O)CO)C(O)=C1O [ascorbic acid, reference compound] here?
**A.** little effect

**Q.** What about the iron absorption [1] of the same molecule?
**A.** markedly improved

**Q.** What does the source list for [Ca+2] [calcium]?
**A.** decrease of phosphorus absorption (for each 500 mg (12.5 mmol) supplemental calcium ingested): 5.4 mmol; decrease of phosphorus absorption (for every 500 mg elemental calcium equivalent ingested): 166 mg

B1: Recombinant A. niger phytase: recombinant Aspergillus niger phytase (microbial 3-phytase enzyme) of literature studies (protein, UniProt P34752 24-467, looked up)
Phytase A: ASRNQSSCDTVDQGYQCFSETSHLWGQYAPFFSLANESVISPEVPAGCRVTFAQVLSRHGARYPTDSKGKKYSALIEEIQQNATTFDGKYAFLKTYNYSLGADDLTPFGEQELVNSGIKFYQRYESLTRNIVPFIRSSGSSRVIASGKKFIEGFQSTKLKDPRAQPGQSSPKIDVVISEASSSNNTLDPGTCTVFEDSELADTVEANFTATFVPSIRQRLENDLSGVTLTDTEVTYLMDMCSFDTISTSTVDTKLSPFCDLFTHDEWINYDYLQSLKKYYGHGAGNPLGPTQGVGYANELIARLTHSPVHDDTSSNHTLDSSPATFPLNSTLYADFSHDNGIISILFALGLYNGTKPLSTTTVENITQTDGFSSAWTVPFASRLYVEMMQCQAEQEPLVRVLVNDRVVPLHGCPVDALGRCTRDSFVRGLSFARSGGDWAECFA
**Q.** Which “iron absorption increased by a factor of” value (healthy young women; iron given as FeSO4) does the source give for B1 here?
**A.** 1.71

**Q.** And the “iron absorption increased by a factor of” value (healthy young women; iron given as NaFeEDTA)?
**A.** 1.23
